{
  "source": "paper PMC11023993",
  "about": "“Piperine, quercetin, and curcumin identified as promising natural products for topical treatment of cutaneous leishmaniasis” (Parasitology Research, 2024)",
  "key": {"[1]": {"tested_on": "L. braziliensis-induced cutaneous leishmaniasis ulcers", "assay": "Histopathological analysis (H-E) of healed ulcers from treated hamsters", "type": "in vivo, golden hamsters (Mesocricetus auratus)", "parameters": "key to Dermis: oedema (grade) / Dermis: granulomatous inflammation (grade) / Epidermis: orthokeratotic hyperkeratosis (grade) / Epidermis: spongiosis (grade) / Epidermis: ulcer (grade) / Dermis: neovascularization (grade) / Dermis: fibroplasia (grade) / Dermis: leukocytic infiltrate (grade): 0, absent; 1, mild; 2, mild to moderate; 3, moderate; 4, moderate to severe; 5, severe", "description": "The changes were analyzed under a standard optical microscope."}, "L. braziliensis": {"tested_on": "L. braziliensis", "parameters": "method as in Dos Santos et al. [2022]", "settings": "oral 20 mg/kg five times a week, from 7 days after infection for 8 weeks; ref Dos Santos et al. [2022]; cited from earlier work"}, "macrophages": {"tested_on": "macrophages", "parameters": "method as in Dos Santos et al. [2022]", "settings": "ref Dos Santos et al. [2022], cited from earlier work"}, "L. major": {"tested_on": "L. major", "parameters": "method as in Almadani et al. [2021]", "settings": "oral 50 mg/kg for 28 consecutive days; ref Almadani et al. [2021]; cited from earlier work"}, "[2]": {"settings": "healed ulcer after topical treatment"}},
  "data": [
    {"compound": "O=c1c(O)c(-c2ccc(O)c(O)c2)oc2cc(O)cc(O)c12", "note": "[Quercetin, quercetin]", "values": [
      {"measurement": "granulomas and amastigotes in healed skin", "setting": "[1]; H-E stain, healed skin after topical treatment", "value": "No amastigotes are observed"},
      {"measurement": "Dermis: fibroplasia (grade)", "setting": "[1]; [2]", "value": 3},
      {"measurement": "Dermis: granulomatous inflammation (grade)", "setting": "[1]; [2]", "value": 0},
      {"measurement": "Dermis: leukocytic infiltrate (grade)", "setting": "[1]; [2]", "value": 3},
      {"measurement": "Dermis: neovascularization (grade)", "setting": "[1]; [2]", "value": 2},
      {"measurement": "Dermis: oedema (grade)", "setting": "[1]; [2]", "value": 2},
      {"measurement": "Epidermis: orthokeratotic hyperkeratosis (grade)", "setting": "[1]; [2]", "value": 2},
      {"measurement": "Epidermis: spongiosis (grade)", "setting": "[1]; [2]", "value": 2},
      {"measurement": "Epidermis: ulcer (grade)", "setting": "[1]; [2]", "value": 0},
      {"measurement": "lesion size and parasite load (lesion and draining lymph node)", "setting": "L. braziliensis", "value": "effectively controlled the lesion size and reduced the parasite load"},
      {"measurement": "concentration giving substantial decrease in macrophage viability", "setting": "macrophages", "value": "exceeding 640 µM"},
      {"measurement": "EC50", "setting": "macrophages; read-out: macrophage viability, estimated EC50", "value": "478 ± 89", "unit": "µM"},
      {"measurement": "histopathological analysis of tissue sections", "setting": "L. major", "value": "reduction in inflammatory cell count, an increase in fibroblasts, and enhanced collagen deposition"}
    ]}
  ]
}
